Where a name gives a salt, the structure may show the parent alone.
What was measured:
[1] = tested on: estrogen receptor; assay: Testing of antiestrogens for SERM function
[2] = tested on: rat vagina; assay: Comparison of SERMs: vaginal epithelium morphology in the OVX rat (Example 2); details: OVX rats, 0.5 mg/kg oral daily
Experimental: Ten to twelve week-old female Sprague-Dawley rats (Crl:CD(SD)Br) (Charles River Laboratory, St-Constant, Canada) weighing 215-265 g at time of ovariectomy were used. The animals were housed individually in an environmentally-controlled room (temperature: 22±3° C.; humidity: 50±20%; 12-h light-12-h dark cycles, lights on at 07:15 h). The animals were allowed free access to tap water and a certified rodent feed (Lab Diet 5002 (pellet), Ralston Purina, St-Louis, Mo.).
Different experiments were performed: two 20-day and two 8-month studies. In each of the two first experiments, the animals were randomly distributed between 3 groups of 13 or 14 animals as follows: 1) Intact control; 2) Ovariectomized (OVX) control; 3) OVX+raloxifene (0.5 mg/kg), or, 3) OVX+LY 363381 (0.5 mg/kg). […] In the other 8-month study, the animals were randomly distributed between 3 groups of 10-11 animals as follows: 1) Intact control; 2) Ovariectomized (OVX) control; 3) OVX+lasofoxifene (0.5 mg/kg). […] The tested compounds were then given once daily by oral gavage as a suspension in 0.4% methylcellulose (0.5 ml/rat) from day 1 to day 20 of the study or from day 1 to week 32 of the study.
Twenty-four hours after the last dosing, the animals were sacrificed under isoflurane anesthesia by exsanguination. The vaginae were collected and immersed in 10% neutral buffered formalin immediately after resection. […] The segments were then routinely processed and embedded in paraffin blocks. When appropriate, all the segments were positioned in the paraffin block in a sequence corresponding to their original anatomical position and oriented perpendicular to the surface of the block, thus allowing the segments to be cut in cross-sections. For each animal, a 4 μm-thick paraffin section was cut and stained with haematoxylin-eosin for morphological examination.

[3] = tested on: rat vagina; assay: Histological evaluation of epithelium, lamina propria and muscularis in the seven rat vaginal segments; assay type: in vivo; details: OVX rats, 36 wk
Excerpt: The animals were housed individually and were allowed free access to water and rodent food (Lab Diet 5002, Ralston Purina, St-Louis, Mo.).
(§1) Animals from the intact and OVX control groups received the vehicle alone.
(§2) Twenty-four hours after the last dosing, overnight fasted animals were sacrificed under isoflurane anesthesia by exsanguination at the abdominal aorta (9 animals per group) or by intracardiac perfusion with 10% neutral buffered formalin (5 animals per group). Vaginae from non-perfused animals were collected and weighed, while the vaginae collected from perfused animals were marked with black ink on the ventral side, and then trimmed as described below.
(§3) The entire vagina of each perfused animal was post-fixed in 10% neutral buffered formalin.
The degree of compactness of collagen fibers in the vagina was categorized as low, moderate and high (FIGS. 6A-6C, respectively), as observed in the area proximal to the epithelium. <<Low>> and <<moderate compactness>> were associated with the presence of coarse collagen fibers loosely or less loosely aggregated together, respectively, while <<high compactness>> was the term used to describe tightly packed fine collagen fibers, displaying a smooth, textured appearance. In all the animals, there were relatively few fibrocytes in proportion to the amount of collagen, and they appeared predominantly flattened and shrunken.

[4] = tested on: rat vagina; assay: Histomorphometry: thickness of vaginal layers at the fifth segment; assay type: in vivo; details: OVX rats, 36 wk, fifth segment, mean±SEM
Excerpt: as §1, §2, §3
Measurements of the different vaginal layers were performed on the fifth segment (FIG. 1), which is approximately halfway between the middle region and the portio vaginalis uteri (segment 7). […] Images were captured with a DC-330 3CCD color camera (Dage-MTI, Michigan City, Ind., USA) and quantified using Image-Pro Plus 3.0 software (Media Cybernetics, Silver Spring, Md., USA). Thus, using a ×5 objective (Leica Microsystems, Willowdale, Ont., Canada), 3 to 4 thickness measurements per layer were obtained from representative areas of the epithelium and muscularis, and for the three vaginal layers together. The total vaginal thickness, the thickness of the epithelium and the thickness of the muscularis were thus measured. The thickness of the lamina propria was obtained by subtracting the thickness of the epithelium and muscularis from total vaginal thickness.
(§4) Data are presented as means±SEM of 8-9 animals per group for vaginal weight or 5 animals per group for vaginal layer thickness determinations. Statistical significance was determined according to the multiple-range test of Duncan-Kramer (Kramer, 1956, Biometrics, 12: 307-310).

[5] = tested on: rat vagina; assay: Vaginal weight after 36 weeks of treatment; assay type: in vivo; details: OVX rats, 36 wk, versus OVX
Excerpt: as §1, §2, §4

[6] = tested on: AR; assay: Immunohistochemistry of AR in fifth vaginal segment; assay type: in vivo, rat; details: OVX rats, 36 wk
Experimental: as §1
(§5) Immunostaining was performed using Zymed SP kits (San Francisco, Calif.). Paraffin sections (4 μm) were deparaffinized in toluene and rehydrated through ethanol. Endogenous peroxidase activity was eliminated by preincubation with 3% H2O2 in methanol for 30 min. A microwave retrieval technique using citrate buffer (Tacha and Chen, 1994) was applied. After cooling the slides, non-specific binding was blocked using 10% goat serum for 20 min. Sections were then incubated for 1.5 h at room temperature with ERα (AB-1, Calbiochem, California), AR (N-20, Santa Cruz Biotechnology, California) or PR (Ab-4, NeoMarkers, California) antibodies, at 1:200, 1:250 and 1:250 respectively. After washing in PBS buffer, sections were incubated with biotinylated anti-rabbit secondary antibody for 10 min and thereafter with streptavidin-peroxidase for another 10 min. Diaminobenzidine was used as the chromogen to visualize the biotin/streptavidin-peroxidase complex, under microscope monitoring. Counterstaining was performed using #2 Gill's hematoxylin for 30 sec. For controls, immunoabsorption with an excess of the peptide used to raise the antibody, or substitution with non immune rabbit IgG, was performed.

[7] = tested on: PR; assay: Immunohistochemistry of PR in fifth vaginal segment; assay type: in vivo, rat; details: OVX rats, 36 wk
Experimental: as §1, §5

[8] = Acolbifene 2.5, Premarin 0.5 mg/kg oral, DHEA 80 mg/kg dorsal skin, segment 1

Oc1ccc2c(c1)CC[C@H](c1ccccc1)[C@@H]2c1ccc(OCCN2CCCC2)cc1 [lasofoxifene, (−)-cis-(5R,6S)-6-phenyl-5-[4-(2-pyrrolidin-1-ylethoxy)phenyl]-5,6,7,8-tetrahydronaphthalen-2-ol, D-(−)-tartrate salt]
function as SERM [1]: found to function as SERMs
mucous cell layer(s) overlying the basal cell layer, middle of the vagina ([2]; 8-month study): many

O=C(c1ccc(OCCN2CCCCC2)cc1)c1c(-c2ccc(O)cc2)sc2cc(O)ccc12 [Raloxifene]
function as SERM [1]: found to function as SERMs
mucous cell layer(s) overlying the basal cell layer, middle of the vagina ([2]; 20-day study): many

Cc1c(-c2ccc(O)cc2)n(Cc2ccc(OCCN3CCCCCC3)cc2)c2ccc(O)cc12 [TSE-424]
function as SERM [1]: found to function as SERMs
mucous cell layer(s) overlying the basal cell layer, middle of the vagina ([2]; 8-month study): one

CC/C(=C(/c1ccc(OCCN(C)C)cc1)c1cccc(O)c1)c1ccccc1 [Droloxifene]
function as SERM [1]: found to function as SERMs

CC1=C(c2ccc(O)cc2)[C@H](c2ccc(OCCN3CCCCC3)cc2)Oc2cc(O)ccc21.Cl [Acolbifene]
compactness of collagen fibers (lamina propria) [3, 8]: M-M
lamina propria thickness [3, 8]: M-M
epithelium morphology ([3]; Acolbifene 2.5, Premarin 0.5 mg/kg oral, DHEA 80 mg/kg dorsal skin, segment 2): SCM-A
epithelium morphology ([3]; Acolbifene 2.5, Premarin 0.5 mg/kg oral, DHEA 80 mg/kg dorsal skin, segment 3): SCM-A
epithelium morphology ([3]; Acolbifene 2.5, Premarin 0.5 mg/kg oral, DHEA 80 mg/kg dorsal skin, segment 4): SCM-A
epithelium morphology ([3]; Acolbifene 2.5, Premarin 0.5 mg/kg oral, DHEA 80 mg/kg dorsal skin, segment 5): SCM-A
epithelium morphology ([3]; Acolbifene 2.5, Premarin 0.5 mg/kg oral, DHEA 80 mg/kg dorsal skin, segment 6): SCM-A
epithelium morphology ([3]; Acolbifene 2.5, Premarin 0.5 mg/kg oral, DHEA 80 mg/kg dorsal skin, segment 7): SCM-A
epithelium thickness of segment 1 (external opening) ([3]; OVX controls 4-6 layers): 9-11 cell layers
animals showing signs of minimal inflammation ([3]; moderate to severe inflammation in all OVX animals): three out of five
total vaginal wall thickness ([4]; OVX 128±3, intact 262±39): 108±8 μm
lamina propria thickness ([4]; total minus epithelium and muscularis, OVX 76±2, intact 135±28): 60±8 μm
effect on vaginal weight [5]: no effect
AR: labeling intensity ([6]; epithelium): ++
AR: semi-quantitative evaluation of labeled nuclei ([6]; epithelium): 2
AR: labeling intensity ([6]; lamina propria): +++
AR: semi-quantitative evaluation of labeled nuclei ([6]; lamina propria): 1
AR: labeling intensity ([6]; muscularis): +++
AR: semi-quantitative evaluation of labeled nuclei ([6]; muscularis): 1
PR: semi-quantitative evaluation of labeled nuclei ([7]; epithelium): 0
PR: semi-quantitative evaluation of labeled nuclei ([7]; lamina propria): 0
PR: semi-quantitative evaluation of labeled nuclei ([7]; muscularis): 0
mucous cell layer(s) overlying the basal cell layer, middle of the vagina ([2]; 8-month study): one

CC/C(=C(\c1ccccc1)c1ccc(OCCN(C)C)cc1)c1ccccc1 [Tamoxifen, (Z)-2-[4-(1,2-diphenyl-1-butenyl)]-N,N-dimethylethanamine]
function as SERM [1]: found to function as SERMs

Cc1c(-c2ccc(O)cc2)n(Cc2ccc(OCCN3CCCCC3)cc2)c2ccc(O)cc12 [ERA-923]
mucous cell layer(s) overlying the basal cell layer, middle of the vagina ([2]; 8-month study): one

C[C@]12CC[C@@H]3c4ccc(O)cc4C[C@@H](CCCCCCCCC[S+]([O-])CCCC(F)(F)C(F)(F)F)[C@H]3[C@@H]1CC[C@@H]2O (stereo partly shown) [ICI 182,780]
function as SERM [1]: found not to function as SERM

COc1ccc(-c2sc3cc(O)ccc3c2Oc2ccc(OCCN3CCCCC3)cc2)cc1 [Arzoxifene]
function as SERM [1]: found to function as SERMs

CC/C(=C(\c1ccccc1)c1ccc(/C=C/C(=O)O)cc1)c1ccccc1 [GW-5638]
function as SERM [1]: found to function as SERMs

COc1ccc(-c2sc3cc(O)ccc3c2Oc2ccc(OCCN3CCCCC3)cc2)cc1 [LY 363381]
mucous cell layer(s) overlying the basal cell layer, middle of the vagina ([2]; 20-day study): many

CC1=C(c2ccc(OC(=O)C(C)(C)C)cc2)[C@H](c2ccc(OCCN3CCCCC3)cc2)Oc2cc(OC(=O)C(C)(C)C)ccc21 [EM-800]
function as SERM [1]: found to function as SERMs

Source: patent US10076525B2, “Sex steroid precursors alone or in combination with selective estrogen receptor modulators for the prevention and treatment of dyspareunia in postmenopausal women” (ENDORECHERCHE, INC., priority 2004, dated 2018)
